Data published in patent US4017485A, “7-Methoxycephalosporin derivatives” (Takeda Chemical Industries, Ltd., priority 1973, dated 1977).
Structures can show the parent of a compound that is named as a salt.

Key:
[1] = test system: Escherichia coli (clinical isolate**); experiment: Antimicrobial spectrum, minimal inhibitory concentration; type: cell-based; conditions: clinical isolate resistant to sulfonamide, streptomycin and sulbenicillin, Tripticase Soy Agar (BBL), pH 6.5, 37° C, read-out: minimal inhibitory concentrations
Procedure: (§1) Based on the above physical and chemical properties as well as the results of other analyses, the chemical structure of this new antibiotic C-2801-X was determined as follows. [drawing 2] 11. Antimicrobial spectrum: Medium: Tripticase Soy Agar (BBL) (manufactured by Becton Dickenson Co., U.S.A.), pH 6.5, minimal inhibitory concentrations mcg/ml., temperature 37° C
**The strain is resistant to sulfonamide, streptomycin and sulbenicillin.

[2] = Solubility; type: physicochemical
[3] = test system: mice; experiment: Acute toxicity test in mice; type: in vivo; conditions: 400 mg. per kilogram of body weight, intravenously
Procedure: In an acute toxicity test in mice, there occurred no death when 400 mg. of Antibiotic C-2801-X monosodium salt per kilogram of body weight was administered intravenously.

[4] = test system: Salmonella typhimurium IFO-12529; experiment: Antimicrobial spectrum, minimal inhibitory concentration; type: cell-based; conditions: Salmonella enterica, Tripticase Soy Agar (BBL), pH 6.5, 37° C, read-out: minimal inhibitory concentrations
Procedure: as §1
(§2) (The IFO-numbers given above are the accession numbers at the Institute
(§3) for Fermentation, Osaka, Japan).

[5] = test system: Proteus vulgaris IFO-3988; experiment: as above; type: cell-based; conditions: IFO3988, Tripticase Soy Agar (BBL), pH 6.5, 37° C, read-out: minimal inhibitory concentrations
Procedure: as §1, §2, §3

[6] = test system: Bacillus pumilus IFO-3813; experiment: as above; type: cell-based; conditions: IFO3813, Tripticase Soy Agar (BBL), pH 6.5, 37° C, read-out: minimal inhibitory concentrations
Procedure: as §1, §2, §3

[7] = test system: Pseudomonas aeruginosa IFO-3080; experiment: as above; type: cell-based; conditions: IFO3080, Tripticase Soy Agar (BBL), pH 6.5, 37° C, read-out: minimal inhibitory concentrations
Procedure: as §1, §2, §3

[8] = test system: Klebsiella pneumoniae IFO-3512; experiment: as above; type: cell-based; conditions: IFO3512, Tripticase Soy Agar (BBL), pH 6.5, 37° C, read-out: minimal inhibitory concentrations
Procedure: as §1, §2, §3

[9] = test system: Proteus morganii IFO-3848; experiment: as above; type: cell-based; conditions: Morganella morganii, IFO3848, Tripticase Soy Agar (BBL), pH 6.5, 37° C, read-out: minimal inhibitory concentrations
Procedure: as §1, §2, §3

[10] = test system: Proteus mirabilis IFO-3849; experiment: as above; type: cell-based; conditions: IFO3849, Tripticase Soy Agar (BBL), pH 6.5, 37° C, read-out: minimal inhibitory concentrations
Procedure: as §1, §2, §3

[11] = test system: Aerobacter cloacae IFO-12009; experiment: as above; type: cell-based; conditions: Enterobacter cloacae, IFO12009, Tripticase Soy Agar (BBL), pH 6.5, 37° C, read-out: minimal inhibitory concentrations
Procedure: as §1, §2, §3

[12] = test system: Alcaligenes faecalis IFO-13111; experiment: as above; type: cell-based; conditions: IFO13111, Tripticase Soy Agar (BBL), pH 6.5, 37° C, read-out: minimal inhibitory concentrations
Procedure: as §1, §2, §3

[13] = test system: Salmonella enteritidis IFO-3313; experiment: as above; type: cell-based; conditions: Salmonella enterica, Tripticase Soy Agar (BBL), pH 6.5, 37° C, read-out: minimal inhibitory concentrations
Procedure: as §1, §2, §3

[14] = test system: Escherichia coli (clinical isolate*); experiment: as above; type: cell-based; conditions: clinical isolate resistant to tetracycline, streptomycin, kanamycin, lividomycin, aminobenzylpenicillin and sulbenicillin, Tripticase Soy Agar (BBL), pH 6.5, 37° C, read-out: minimal inhibitory concentrations
Procedure: as §1
*The strain is resistant to tetracycline, streptomycin, kanamycin,
lividomycin, aminobenzylpenicillin and sulbenicillin.

[15] = acidity-alkalinity; type: physicochemical
[16] = test system: Bacillus subtilis PCI 219; experiment: Antimicrobial spectrum, minimal inhibitory concentration; type: cell-based; conditions: PCI219, Tripticase Soy Agar (BBL), pH 6.5, 37° C, read-out: minimal inhibitory concentrations
Procedure: as §1

[17] = test system: Straphylococcus aureus No.87; experiment: as above; type: cell-based; conditions: Tripticase Soy Agar (BBL), pH 6.5, 37° C, read-out: minimal inhibitory concentrations
Procedure: as §1

[18] = test system: Staphylococcus aureus 209 P; experiment: as above; type: cell-based; conditions: Tripticase Soy Agar (BBL), pH 6.5, 37° C, read-out: minimal inhibitory concentrations
Procedure: as §1

[19] = test system: Escherichia coli NIHJ; experiment: as above; type: cell-based; conditions: Tripticase Soy Agar (BBL), pH 6.5, 37° C, read-out: minimal inhibitory concentrations
Procedure: as §1

[20] = test system: Escherichia coli (clinical isolate, antibiotic-susceptible strain); experiment: as above; type: cell-based; conditions: Tripticase Soy Agar (BBL), pH 6.5, 37° C, read-out: minimal inhibitory concentrations
Procedure: as §1

[21] = test system: Pseudomonas aeruginosa NCTC-10490; experiment: as above; type: cell-based; conditions: NCTC10490, Tripticase Soy Agar (BBL), pH 6.5, 37° C, read-out: minimal inhibitory concentrations
Procedure: as §1

[22] = test system: Staphylococcus aureus 209 P (chloramphenicol, streptomycin, tetracycline and erythromycin-resistant); experiment: as above; type: cell-based; conditions: pH 6.5, read-out: minimal inhibitory concentrations
Procedure: as §1

[23] = test system: Staphylococcus aureaus, Bacillus subtilis, Escherichia coli, Proteus vulgaris, Salmonella typhimurium, aerobic bacteria; experiment: Inhibition of bacterial growth (summary statement); type: cell-based; conditions: antibiotic C-2801-X and its salts
[24] = Stability under strongly acidic and under alkaline conditions; type: physicochemical

Compound: COC(=Cc1ccc(O)c(O)c1)C(=O)OCC1=C(C(=O)O)N2C(=O)C(NC(=O)CCCC(N)C(=O)O)(OC)C2SC1 (stereo not shown) [Antibiotic C-2801-X monosodium salt]
- MIC [1]: 25 µg/mL
- Solubility ([2]; in chloroform): Insoluble
- Solubility ([2]; in ethanol): Soluble
- Solubility ([2]; in ether): Insoluble
- Solubility ([2]; in ethyl acetate): Insoluble
- Solubility ([2]; in methanol): Soluble
- Solubility ([2]; in water): Soluble
- death in acute toxicity test [3]: no death
- MIC [4]: 6.25 µg/mL
- MIC [5]: 12.5 µg/mL
- MIC [6]: 50 µg/mL
- MIC [7]: > 100 µg/mL
- MIC [8]: 6.25 µg/mL
- MIC [9]: 25 µg/mL
- MIC [10]: 3.13 µg/mL
- MIC [11]: 25 µg/mL
- MIC [12]: 12.5 µg/mL
- MIC [13]: 6.25 µg/mL
- MIC [14]: 25 µg/mL
- acidity-alkalinity [15]: Amphoteric
- MIC [16]: 12.5 µg/mL
- MIC [17]: 50 µg/mL
- MIC [18]: 50 µg/mL
- MIC [19]: 50 µg/mL
- MIC [20]: 25 µg/mL
- MIC [21]: > 100 µg/mL
- MIC [22]: 50 µg/mL

Compound: COC(=Cc1ccc(O)c(O)c1)C(=O)OCC1=C(C(=O)O)N2C(=O)C(NC(=O)CCCC(N)C(=O)O)(OC)C2SC1 (stereo not shown) [Antibiotic C-2801-X]
- inhibition of growth of bacteria [23]: inhibit the growth
- Solubility ([2]; in water): water-soluble
- stability [24]: unstable
- acidity-alkalinity [15]: amphoteric
